Measurements published in US20210353648A1, “GRAPIPRANT UNIT DOSAGE FORMS” (Arrys Therapeutics, Inc., priority 2018, published 2021).

Assays:
Experiment in all cases: Multiple ascending dose study: bone marker, percent change from baseline
Assay type in all cases: in vivo, human
osteocalcin = test system: osteocalcin
Description: (§1) Each bone marker (serum bone-specific alkaline phosphatase and osteocalcin, urinary N-terminal telopeptide of type I collagen) is expressed as percentage change from baseline and analyzed. To assess influence of potential outliers on the bone marker data analyses, the following analysis can be conducted first. Potential outliers are identified as outside an interval consistent with a normal distribution defined as (median±3.5 standard deviations [SD]) for each dosing regimen and day combination. The SD is a pooled estimate across all dosing regimen and day combinations, each estimated by the scaled inter-quartile range 0.75 (Q75-Q25). Explicitly, for each dosing regimen and day combination, its SD denoted by SDi is estimated by its scaled inter-quartile range 0.75 (Q75-Q25). The overall SD is estimated as
(§2) Then, the (percent change from baseline) values are analyzed with a mixed effect model, with treatment (dosing regimen), day, and treatment-by-day interaction effects considered fixed and subject considered random. Baseline value is not included as a covariate. The model is fit separately to each group of cohorts (Cohorts 1-3 and 5). For Cohorts 1-3, days of interest are day 7 and day 14. For Cohort 5, days of interest are day 10 and day 17. For each group of cohorts, compound symmetry is assumed, and Restricted Maximum Likelihood Estimates are used. The least squares means (LSMeans) and 95% confidence intervals (CI) are obtained for each treatment and day combination. Within each treatment, LSMean percent changes from baseline at each post-dosing day (i.e., day 7 and day 14 for Cohorts 1-3, and day 10 and day 17 for Cohort 5) are obtained, along with their 95% CIs. In addition, for each post-dosing day, differences of the LSMean percent changes from baseline between active dosed regimen and placebo are obtained. The p-values comparing these differences from placebo are obtained using t-tests. No adjustments are made for multiple comparisons. […] If outliers are identified, additional mixed model analyses using the same mixed effect modeling as detailed above are to be conducted excluding the outliers. […] Individual percent-change-from-baseline profile versus time plots are plotted by treatment regimen.

[1] = test system: serum bone-specific alkaline phosphatase; conditions: for change from baseline in bone-specific alkaline phosphatase (least squares mean): 300 mg BID
Description: as §1, §2

[2] = test system: urinary N-terminal telopeptide of type I collagen
Description: as §1, §2

[3] = 50 mg, 14-day oral administration, healthy adults, post-dosing day 7
[4] = 50 mg, 14-day oral administration, healthy adults, post-dosing day 14
[5] = 150 mg, 14-day oral administration, healthy adults, post-dosing day 7
[6] = 150 mg, 14-day oral administration, healthy adults, post-dosing day 14
[7] = 250 mg, 17-day oral administration, elderly with minor renal impairment, post-dosing day 10
[8] = 250 mg, 17-day oral administration, elderly with minor renal impairment, post-dosing day 17
[9] = 300 mg, 14-day oral administration, healthy adults, post-dosing day 7
[10] = 300 mg, 14-day oral administration, healthy adults, post-dosing day 14
[11] = elderly subjects, 250 mg BID versus placebo

`CCc1nc2c(C)nc(C)cc2n1-c1ccc(CCNC(=O)NS(=O)(=O)c2ccc(C)cc2)cc1` [Grapiprant, N-((4-(2-ethyl-4,6-dimethyl-1H-imidazo[4,5-c]pyridin-1-yl)phenethyl)carbamoyl)-4-methylbenzenesulfonamide] was tested, and the “change from baseline in osteocalcin (least squares mean)” value (osteocalcin; 50 mg BID, Day 7, healthy subjects, placebo 39.30%, p=0.023) was 1.40%, the “LS Mean change in blood osteocalcin” value (osteocalcin; [3]) was “about −37.90%” and the “LS Mean change in blood osteocalcin” value (osteocalcin; [4]) was “about −13.58%”. For the same molecule, the “LS Mean change in blood osteocalcin” value (osteocalcin; [5]) was “about −31.02%”, the “LS Mean change in blood osteocalcin” value (osteocalcin; [6]) was “about −10.29%” and the “LS Mean change in blood osteocalcin” value (osteocalcin; [7]) was “about −5.91%”. The “LS Mean change in blood osteocalcin” value (osteocalcin; [8]) was “about −3.96%”, the “change from baseline in osteocalcin (least squares mean)” value (osteocalcin; 300 mg BID, Day 14, healthy subjects, placebo 47.84%, p=0.045) was 14.37% and the “LS Mean change in blood osteocalcin” value (osteocalcin; [9]) was “about −10.30%”. For the same molecule, the “LS Mean change in blood osteocalcin” value (osteocalcin; [10]) was “about −33.47%”, the “bone marker difference between treatment groups” value (osteocalcin; [11]) was “no statistically significant differences” and the “LS Mean Difference in bone-specific alkaline phosphatase” value [1, 3] was “about −8.62%”. The “LS Mean Difference in bone-specific alkaline phosphatase” value [1, 4] was “about 7.16%”, the “LS Mean Difference in bone-specific alkaline phosphatase” value [1, 5] was “about 4.76%” and the “LS Mean Difference in bone-specific alkaline phosphatase” value [1, 6] was “about 1.23%”. The “LS Mean Difference in bone-specific alkaline phosphatase” value [1, 7] was “about −1.75%”, the “LS Mean Difference in bone-specific alkaline phosphatase” value [1, 8] was “about 3.88%” and the “change from baseline in bone-specific alkaline phosphatase (least squares mean)” value ([1]; Day 7, healthy subjects, placebo 4.70%, p=0.020) was 20.80%. For the same molecule, the “change from baseline in bone-specific alkaline phosphatase (least squares mean)” value ([1]; Day 14, healthy subjects, placebo −5.36%, p=0.006) was 14.36%, the “LS Mean Difference (of percent change from baseline) in bone-specific alkaline phosphatase” value [1, 9] was “about 16.10%” and the “LS Mean Difference in bone-specific alkaline phosphatase” value [1, 10] was “about 19.72%”. The “bone marker difference between treatment groups” value [1, 11] was “no statistically significant differences”, the “LS Mean change in N-telopeptide of type I collagen” value (“LS Mean change in N-telopeptide” for short) [2, 3] was “about 14.77%” and the “LS Mean change in N-telopeptide” value [2, 4] was “about −23.50%”. For the same molecule, the “change from baseline in urine N-telopeptide (least squares mean)” value ([2]; 150 mg BID, Day 14, healthy subjects, placebo 34.74%, p=0.050) was −3.97%, the “LS Mean change in N-telopeptide” value [2, 5] was “about −9.78%” and the “LS Mean change in N-telopeptide” value [2, 6] was “about −38.72%”. For the same molecule, the “LS Mean change in N-telopeptide” value [2, 7] was “about −9.62%”, the “LS Mean change in N-telopeptide” value [2, 8] was “about −16.76%” and the “LS Mean change in N-telopeptide” value [2, 9] was “about 12.69%”. For the same molecule, the “LS Mean change in N-telopeptide” value [2, 10] was “about −21.33%” and the “bone marker difference between treatment groups” value [2, 11] was “no statistically significant differences”.
